According to the supplement of paper PMC10307832:

Experiments:
Assay in all cases: relative viability (nuclei count vs DMSO), 5 days (fraction); higher = more cells survive
[1] = compound: CNC(=O)c1cc(Oc2ccc(NC(=O)Nc3ccc(Cl)c(C(F)(F)F)c3)cc2)ccn1 [Sorafenib] + N=C(N)NC(=N)NCCc1ccccc1 [Phenformin] (partner 250 µM)
Summary of the method: (§1)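 Nuclei were stained with Hoechst during a one-step fixation (final 0.05% Triton X-100, 1% formaldehyde, 1 ug/ml Hoechst) carried out 5 days after dosing, then counted on 4× images. The cells, lung cancer lines in 1536-well plates, had been dosed by pin tool the day after seeding with one drug alone or a fixed anchor-drug dose plus five library-drug doses (not always all listed) in √10 steps. Relative viability is the nuclei count in treated wells divided by that in vehicle wells, and each value is the median of duplicate plates.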

[2] = compound: CNC(=O)c1cc(Oc2ccc(NC(=O)Nc3ccc(Cl)c(C(F)(F)F)c3)cc2)ccn1 [Sorafenib] + COc1cccc2cc(-c3nc([C@H]4CC[C@H](C(=O)O)CC4)n4ncnc(N)c34)[nH]c12 [OSI-027] (partner 0.5 µM)
Summary of the method: as §1

[3] = compound: CNC(=O)c1cc(Oc2ccc(NC(=O)Nc3ccc(Cl)c(C(F)(F)F)c3)cc2)ccn1 [Sorafenib] + CCNC(=O)c1noc(-c2cc(C(C)C)c(O)cc2O)c1-c1ccc(CN2CCOCC2)cc1 [Luminespib] (partner 0.01 µM)
Summary of the method: as §1

[4] = compound: CNC(=O)c1cc(Oc2ccc(NC(=O)Nc3ccc(Cl)c(C(F)(F)F)c3)cc2)ccn1 [Sorafenib] + CS(=O)(=O)N1CCN(Cc2cc3nc(-c4cccc5[nH]ncc45)nc(N4CCOCC4)c3s2)CC1 [Pictilisib] (partner 1 µM)
Summary of the method: as §1

[5] = compound: CNC(=O)c1cc(Oc2ccc(NC(=O)Nc3ccc(Cl)c(C(F)(F)F)c3)cc2)ccn1 [Sorafenib] + CC(=O)c1c(C)c2cnc(Nc3ccc(N4CCNCC4)cn3)nc2n(C2CCCC2)c1=O [Palbociclib] (partner 0.5 µM)
Summary of the method: as §1

| Cell Line | relative viability ([1]; first compound 0.08 µM) | relative viability ([1]; first compound 0.253 µM) | relative viability ([1]; first compound 2.53 µM) | relative viability ([1]; first compound 8 µM) | relative viability ([2]; first compound 0.08 µM) | relative viability ([2]; first compound 0.253 µM) | relative viability ([2]; first compound 2.53 µM) | relative viability ([2]; first compound 8 µM) | relative viability ([3]; first compound 0.08 µM) | relative viability ([3]; first compound 0.253 µM) | relative viability ([3]; first compound 2.53 µM) | relative viability ([3]; first compound 8 µM) | relative viability ([4]; first compound 0.08 µM) | relative viability ([4]; first compound 0.253 µM) | relative viability ([4]; first compound 2.53 µM) | relative viability ([4]; first compound 8 µM) | relative viability ([5]; first compound 0.08 µM) | relative viability ([5]; first compound 0.253 µM) | relative viability ([5]; first compound 2.53 µM) | relative viability ([5]; first compound 8 µM) |
| --- | --- | --- | --- | --- | --- | --- | --- | --- | --- | --- | --- | --- | --- | --- | --- | --- | --- | --- | --- | --- |
| LOU-NH91 | 0.784 | 0.678 | 0.73 | 0.489 | 0.783 | 0.713 | 0.788 | 0.799 | 0.306 | 0.359 | 0.418 | 0.336 | 0.557 | 0.543 | 0.585 | 0.491 | 0.533 | 0.52 | 0.55 | 0.533 |
| HOP-62 | 0.682 | 0.558 | 0.54 | 0.369 | 0.848 | 0.631 | 0.759 | 0.657 | 0.981 | 0.865 | 0.705 | 0.886 | 0.685 | 0.632 | 0.619 | 0.68 | 0.454 | 0.372 | 0.358 | 0.263 |
| LC-2-ad | 0.595 | 0.495 | 0.613 | 0.453 | 0.889 |  | 0.9 | 0.573 | 1.01 | 1.04 | 1.06 | 0.879 | 0.432 | 0.369 | 0.32 | 0.193 | 0.54 | 0.456 | 0.447 | 0.393 |
| NCI-H727 | 0.634 | 0.416 | 0.439 | 0.507 | 0.688 | 0.542 | 0.619 | 0.508 | 0.528 | 0.344 | 0.501 | 0.221 | 0.332 | 0.337 | 0.257 | 0.311 | 0.688 | 0.616 | 0.681 | 0.569 |
| NCI-H647 | 0.636 | 0.495 | 0.454 | 0.198 | 0.62 | 0.634 | 0.506 | 0.427 | 0.182 | 0.0896 | 0.148 | 0.15 | 0.544 |  | 0.475 | 0.374 | 0.373 | 0.316 | 0.284 | 0.082 |
| NCI-H23 | 0.829 |  | 0.726 | 0.74 |  | 0.501 | 0.488 | 0.398 | 0.225 |  | 0.228 | 0.213 | 0.474 | 0.445 | 0.39 | 0.362 | 0.522 | 0.503 | 0.514 | 0.389 |
| NCI-H2170 | 0.403 | 0.437 | 0.43 | 0.361 | 0.72 | 0.681 | 0.647 | 0.51 | 0.527 | 0.707 | 0.706 | 0.592 | 0.323 | 0.348 | 0.369 | 0.255 | 0.379 | 0.327 | 0.401 | 0.325 |
| ChaGo-K-1 | 0.552 | 0.405 | 0.469 | 0.299 | 0.583 | 0.397 | 0.683 | 0.46 | 0.708 | 0.446 | 0.606 | 0.325 | 0.939 | 0.592 | 0.794 | 0.399 | 0.908 | 0.894 |  | 0.679 |
| NCI-H1437 | 0.301 | 0.299 | 0.302 | 0.306 | 0.949 | 0.676 | 0.8 | 0.558 | 1.1 | 1.06 | 1.17 |  | 0.483 | 0.393 | 0.364 | 0.238 | 0.324 | 0.256 | 0.304 | 0.246 |
| SK-LU-1 | 0.641 | 0.484 | 0.487 | 0.195 | 0.41 | 0.283 | 0.345 | 0.227 | 0.181 | 0.181 | 0.2 | 0.179 | 0.61 | 0.439 | 0.579 | 0.412 | 0.474 | 0.372 | 0.362 | 0.326 |
| NCI-H1944 | 0.207 | 0.188 | 0.21 | 0.144 | 0.4 | 0.381 | 0.436 | 0.334 | 0.697 | 0.634 |  | 0.552 | 0.368 | 0.332 | 0.365 | 0.274 | 0.339 | 0.346 | 0.371 | 0.306 |
| NCI-H1993 | 0.516 | 0.51 | 0.499 | 0.499 | 0.477 | 0.517 | 0.504 | 0.435 | 0.921 | 0.489 | 0.999 | 0.543 | 0.833 | 0.788 | 0.707 | 0.677 | 0.662 | 0.656 | 0.751 | 0.565 |
| ABC-1 | 0.218 | 0.234 | 0.247 | 0.233 | 0.575 | 0.49 | 0.654 | 0.37 | 0.815 | 0.378 | 0.538 | 0.158 | 0.78 | 0.713 | 1.02 | 0.332 | 0.712 | 0.682 | 0.854 | 0.725 |
| NCI-H2126 | 0.539 | 0.529 | 0.603 | 0.501 | 0.824 | 0.665 | 0.712 | 0.703 | 0.981 |  | 0.882 | 0.864 | 0.498 | 0.505 | 0.618 | 0.54 | 0.354 | 0.375 | 0.411 | 0.399 |
| BEN | 0.278 | 0.254 | 0.239 | 0.205 | 0.318 | 0.326 | 0.338 | 0.27 | 0.439 | 0.173 | 0.2 | 0.0694 | 0.649 | 0.512 | 0.531 | 0.413 | 0.48 | 0.513 | 0.413 | 0.516 |
| NCI-H3122 | 0.39 | 0.326 | 0.346 | 0.212 | 0.99 | 0.898 | 0.805 | 0.378 | 0.11 | 0.105 | 0.0728 | 0.044 | 0.762 | 0.671 | 0.604 | 0.234 | 0.204 | 0.2 | 0.177 | 0.18 |
